Where two headings read alike, the source gives them in different places. Values belong to the molecule of their own block, whether it stands above or below them.
Columns and labels:
[1] = target: T1, Porcine Dipeptidyl Peptidase IV (Sus scrofa, UniProt P22411); assay: Assay of Porcine Dipeptidyl Peptidase IV, steady-state inhibition constants (Ki); format: biochemical; settings: DPP-IV
T1 construct: left at 37° C. for 18 hours to facilitate cleavage of DPP-4 from cell membranes; from tissue; host or cells: pig kidney cortex
T1 sequence (P22411 38-766 limits assumed): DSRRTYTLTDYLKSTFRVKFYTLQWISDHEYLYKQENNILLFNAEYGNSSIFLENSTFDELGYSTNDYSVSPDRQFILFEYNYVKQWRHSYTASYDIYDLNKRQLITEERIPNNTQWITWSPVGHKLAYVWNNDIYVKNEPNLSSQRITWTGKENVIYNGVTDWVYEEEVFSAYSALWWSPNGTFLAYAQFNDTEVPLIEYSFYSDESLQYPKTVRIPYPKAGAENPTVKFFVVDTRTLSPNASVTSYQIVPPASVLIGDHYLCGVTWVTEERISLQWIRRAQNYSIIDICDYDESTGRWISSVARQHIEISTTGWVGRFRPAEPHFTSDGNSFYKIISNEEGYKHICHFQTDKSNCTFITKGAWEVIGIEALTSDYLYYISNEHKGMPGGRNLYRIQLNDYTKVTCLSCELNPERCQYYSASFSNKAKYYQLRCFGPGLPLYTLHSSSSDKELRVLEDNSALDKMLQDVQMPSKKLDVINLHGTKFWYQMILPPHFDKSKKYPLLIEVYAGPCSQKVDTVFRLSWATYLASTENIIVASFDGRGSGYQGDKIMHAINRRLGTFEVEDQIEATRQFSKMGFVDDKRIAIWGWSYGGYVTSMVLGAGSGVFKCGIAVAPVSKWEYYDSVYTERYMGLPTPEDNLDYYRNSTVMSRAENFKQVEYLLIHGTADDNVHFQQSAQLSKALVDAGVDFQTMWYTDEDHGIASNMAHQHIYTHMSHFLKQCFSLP
Procedure: DPP-4 inhibitor activity of the compounds of the invention may be determined by use of an in vitro assay system which measures the potentiation of inhibition of DPP-4.
Porcine enzyme was purified as previously described in reference (2) below, with several modifications. Kidneys from 15-20 animals were obtained, and the cortex was dissected away and frozen at −80° C. Frozen tissue (2000-2500 g) was homogenized in 12 L of 0.25 M sucrose in a Waring blender. The homogenate then was left at 37° C. for 18 hours to facilitate cleavage of DPP-4 from cell membranes. After the cleavage step, the homogenate was clarified by centrifugation at 7000×g for 20 min at 4° C., and the supernatant was collected. […]
After dialysis against 20 mM Na2HPO4, pH 7.4, the preparation was clarified by centrifugation at 10,000×g. […] Purity of column fractions was analyzed by reducing SDS-PAGE, and the purest fractions were pooled and concentrated. […]
Enzyme was assayed under steady-state conditions as previously described in reference (2) below with gly-pro-p-nitroanilide as substrate, with the following modifications. […] A standard curve for p-nitroaniline absorbance was obtained at the beginning of each experiment, and enzyme catalyzed p-nitroaniline production was quantitated from the standard curve. […]

[2] = target: T2, plasma DPP-IV (Rattus norvegicus, UniProt P14740); assay: Rat ex vivo plasma DPP-IV inhibition assay; format: in vivo, Zucker fa/fa rat; settings: oral; for inhibition at 3 µmol/kg: rat, 3 μmol/kg
T2 construct: from tissue; host or cells: plasma of male Zucker fa/fa rats (Harlan)
T2 sequence (P14740 37-767 limits assumed): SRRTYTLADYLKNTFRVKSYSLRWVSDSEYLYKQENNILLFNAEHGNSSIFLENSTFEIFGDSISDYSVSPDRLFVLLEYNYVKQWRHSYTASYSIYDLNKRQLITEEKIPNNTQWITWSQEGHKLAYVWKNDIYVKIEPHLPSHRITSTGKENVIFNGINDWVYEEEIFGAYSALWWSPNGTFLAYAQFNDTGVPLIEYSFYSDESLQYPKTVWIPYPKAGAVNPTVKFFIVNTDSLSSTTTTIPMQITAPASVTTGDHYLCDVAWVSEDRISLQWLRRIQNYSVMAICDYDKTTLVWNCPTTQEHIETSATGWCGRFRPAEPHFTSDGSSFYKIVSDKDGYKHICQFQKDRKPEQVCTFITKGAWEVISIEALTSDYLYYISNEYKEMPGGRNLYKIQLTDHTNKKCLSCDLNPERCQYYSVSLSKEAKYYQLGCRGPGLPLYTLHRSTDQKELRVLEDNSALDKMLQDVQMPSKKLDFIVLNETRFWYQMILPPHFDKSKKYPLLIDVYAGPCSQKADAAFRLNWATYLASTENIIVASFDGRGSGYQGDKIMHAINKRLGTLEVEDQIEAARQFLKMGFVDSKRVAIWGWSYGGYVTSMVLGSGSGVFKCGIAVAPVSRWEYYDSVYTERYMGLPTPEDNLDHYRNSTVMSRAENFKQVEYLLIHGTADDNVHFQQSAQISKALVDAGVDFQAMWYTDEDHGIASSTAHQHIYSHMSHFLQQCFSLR

[3] = system: Zucker^fa/fa rat; assay: Oral glucose tolerance test (OGTT) in Zucker fa/fa rats; format: in vivo; settings: for glucose control after oral glucose challenge (in words): rodent model of impaired glucose homeostasis
Excerpt: In vivo evaluation of DPP-IV inhibitors has supported the connection between DPP-IV inhibition, increases in plasma insulin levels, and an improvement in glucose tolerance.^1 Several compounds in the present series are potent inhibitors of DPP-IV in vitro. As such, these inhibitors were selected to determine the effects of DPP-IV inhibition ex vivo and on glucose tolerance in Zucker^fa/fa rat. The Zucker^fa/fa rat is a frequently used model in type II diabetes and obesity research. […] Plasma glucose levels were then monitored over a 2 h period. Columns 3 and 4 show the ex vivo plasma DPP-IV inhibition activity. […] In contrast, the adamantyl inhibitors show good inhibitory activity in the ex vivo assay, even at extended time points.
Male Zucker^fa/fa rats (Harlan) weighing between 400 and 450 g were housed in a room that was maintained on a 12 h light /dark cycle and were allowed free access to normal rodent chow and tap water. The day before the experiment, the rats were weighed and divided into control and treated groups of six. Rats were fasted 17 h prior to the start of the study. […] Two blood samples were collected at −30 and 0 min by tail bleed. Glucose (2 g/kg) was administered orally at 0 min. Additional blood samples were collected at 15, 30, 60, 90 and 120 min. Blood samples were collected into EDTA containing tubes from Starstedt. Plasma glucose was determined by Cobas Mira (Roche Diagnostics) by the glucose oxidation method.

[4] = Solution stability of 2-cyano-pyrrolidines; format: physicochemical
Procedure: In experiments at pH=7.2 and 39° C., the greater degree of β-branching the greater degree of stability associated with the compound. […] These are depected in the table below.

Molecule: N#C[C@@H]1CCCC1C(=O)C(N)C12CC3CC(CC(O)(C3)C1)C2 (stereo partly shown) [Example 9]
glucose control after oral glucose challenge (in words) [3]: good glucose control

Molecule: CC[C@H](C)[C@H](N)C(=O)N1CCC[C@H]1C#N [Ref. Std 1, iso-Leucine-cyanopyrrolide]
Glucose Lowering at 4 h; % AUC's, compared to control ([3]; dosed at 16 μm/kg): −11% | Glucose Lowering at 4 h; % AUC's, compared to control ([3]; dosed at 200 μm/kg): −19% | glucose control after oral glucose challenge (in words) [3]: only a slight change in glucose control | half-life ([4]; pH 7.2): 300 min

Molecule: tert-Leucine-cyanopyrrolide
times more stable than Ref. Std. 1 ([4]; pH=7.2, 39° C., ratio of t1/2): ~6

Continued, in another order:

Ki [1]: 17 nM | % Inhibition in Rat Ex Vivo assay 3 μmol/kg 0.5 h post dose ([2]; 0.5 h post dose): 80% | % Inhibition in Rat Ex Vivo assay 3 μmol/kg 4 h post dose ([2]; 4 h post dose): 67%
Molecule: N#CC1CC2CC2N1C(=O)[C@@H](N)C12CC3CC(O)(CC(O)(C3)C1)C2.O=C(O)C(F)(F)F (stereo in doubt) [Example 8, (S)-3,5-Dihydroxyadamantylglycine-L-cis-4,5-methanoprolinenitrile TFA salt]

Ki [1]: 133 nM | inhibition at 3 µmol/kg ([2]; 0.5 h post dose, read-out: % Inhibition in Rat Ex Vivo assay 3 μmol/kg 0.5 h post dose): 70% | inhibition at 3 µmol/kg ([2]; 4 h post dose, read-out: % Inhibition in Rat Ex Vivo assay 3 μmol/kg 4 h post dose): 66%
Molecule: CC12CC3(C)CC(O)(C1)CC([C@H](N)C(=O)N1CCCC1)(C2)C3 [Example 5, (3-hydroxy-5,7-dimethyladamant-1-yl)-glycine pyrrolidine amide]
Glucose Lowering at 4 h; % AUC's, compared to control ([3]; oral, 3 μmol/kg, oral glucose 2 g/kg): −39%
